Data from patent US10857112B2, “Small molecule inhibitors of RNA binding motif (RBM) proteins for the treatment of acute cellular injury” (University of Pittsburgh—Of the Commonwealth System of …, priority 2012, dated 2020).

Legend:
caspase-9 = assay: STS-induced caspase-9 activity in neurons; assay type: cell-based, rat; settings: 150 nM STS 24 hours; co-treatment 75 μM
[1] = tested on: primary rat cortical neurons; assay: AQ2S alone on fluorescent and luminescent viability assays (luciferase interference); assay type: cell-based
Method: To test if AQ2S mediated inhibition of caspase3/7 was artifact, the effect of different AQ2S concentrations on 2 different cell viability tests were compared (one test fluorometric and the other luminescent). AQ2S was incubated at the indicated concentrations for 24 hours. After 24 hours, the cell viability reagent was added and cell survival assayed. […] Finally, to replicate the exact experimental conditions used in injury studies, neurons were first incubated with the CellTiter Blue reagent for 2 hours. Subsequently, the viability-GLO reagent was added for 1 hour and luminescence measured (i.e. viability reagents were mixed together; FIG. 11C).

[2] = tested on: extracellular regulated kinase (ERK); assay: Western blot of ERK activation; assay type: cell-based, rat; settings: 125 μM; 17 hours STS
Method: To determine the specificity of AQ2S mediated signaling changes, extracellular regulated kinase (ERK) was also examined. 17 hours STS abolished ERK activation.
Neurons used for Western blot analysis for grown in 6-well plates. Briefly, neurons were treated with experimental compounds for the indicated time/conditions. At the end of each experiment, neurons were washed in ice cold PBS and harvested in 65 μL RIPA buffer containing protease inhibitors, phosphatase inhibitors, and EDTA. Extracts were collected in 0.5 mL tubes and sonicated for 20-30 seconds. Cell extracts were then spun at 4° C./16,000 g/10 minutes and stored at −80° C. until use. Frozen extracts were thawed on ice and protein concentration measured using the BCA assay (PIERCE). […] of sample protein was loaded per well of a 7.5% SDS precast gel (Biorad), and run for 30 minutes to 1 hour at 200 V. Kaleidoscope protein standards (Biorad) were run parallel to neuron extracts. Proteins were then transferred to PDVF membranes (run at 100 V/4° C./1.5 hours). PDVF membranes were washed once in tris buffered saline (TBS) and blocked for 1 hour in tris buffered saline/tween-20 with 7.5% nonfat milk (TBS-T/milk). Blots were incubated overnight at 4° C. with primary antibodies in TBS-T/milk. Cell Signaling Technology: phospho-AKT473, AKT Total, phospho-ERK1/2, ERK Total, cleavage caspase-3. […]

4-HNE = assay: Lipid peroxidation (4-HNE western blot) in neurons; assay type: cell-based, rat
Method: To test if AQ2S promotes lipid peroxidation in neurons, at D.I.V. 12, culture media was exchanged with Neurobasal/B27 (−AO) in the absence or presence of […] for 48 hours. D.I.V. 14 neurons were harvested and analyzed for 4-HNE levels.
Injury (e.g. brain ischemia), robustly increases endogenous reactive oxygen species (ROS) levels. ROS may promote the formation of deleterious quinone radicals and increase lipid peroxidation. The potential enhancement by AQ2S of lipid peroxidation induced by 200 μM H2O2 was evaluated. D.I.V. 13 neurons were treated for 4.5 hours with 200 μM H2O2 in fresh neurobasal/B27 (−AO) in the presence or absence of 125 μM AQ2S. 200 μM H2O2 increased 4-HNE levels. The asterisk in FIG. 17b indicates an approximate 40-45 KDa band, particularly, sensitive to treatment.
Neurons used for Western blot analysis for grown in 6-well plates. Briefly, neurons were treated with experimental compounds for the indicated time/conditions. At the end of each experiment, neurons were washed in ice cold PBS and harvested in 65 μL RIPA buffer containing protease inhibitors, phosphatase inhibitors, and EDTA. Extracts were collected in 0.5 mL tubes and sonicated for 20-30 seconds. Cell extracts were then spun at 4° C./16,000 g/10 minutes and stored at −80° C. until use. Frozen extracts were thawed on ice and protein concentration measured using the BCA assay (PIERCE). […]

[3] = tested on: primary rat cortical neurons; assay: Stretch injury (in vitro TBI), LDH release and MTT metabolism; assay type: cell-based; settings: 24 hours after injury
Method: Rat cortical neurons are isolated from E16 embryos, and plated on silicone membranes (with defined elastic properties) held in a custom made stainless steel chamber. DIV 7-9 neurons are subjected to a (computer controlled) preset stretch injury; strain rate 10 s^−1 and 50% membrane deformation. AQ2S or DMSO (vehicle control) was added before (pre-treatment) or after post-treatment) injury, Cell death was assayed ˜24 hours after injury by measuring 1) extracellular LDH in the culture media (released from dying/dead cells), 2) caspase-3/7 activation (a protease involved in execution of cell death), and 3) MTT metabolism (a reagent metabolized by living cells).
LDH is released by dying or injured cells. Primary rat cortical neurons were grown on a custom made stretch-injury device (An in vitro model of TBI). Neurons were pre-treated with 75 μM AQ2S or vehicle only (DMSO control) for 30 minutes, and subjected to a defined stretch injury. 24 hours after injury LDH levels were measured. […] Data was analyzed using a T-test; ***p<0.0001. […]
(3-(4,5-Dimethylthiazol-2-yl)-2,5-diphenyltetrazolium bromide; MTT) is metabolized in living but not dying cells. […] MTT metabolism was measured 24 hours after injury. […] Data was analyzed using ANOVA and Fisher LSD post-hoc test. […]

[4] = tested on: C57BL6 mice, severe CCI brain injury; assay: Controlled cortical impact (TBI) injury, hippocampal volume; assay type: in vivo
Method: AQ2S was prepared in 2% DMSO in PBS (i.e. vehicle). C57BL6 mice were administered a severe CCI brain injury. Severe brain trauma was induced by a pneumatic impactor device that delivers a defined cortical injury (impact depth, 1.6 mm; impact velocity, 5 m/s). 15 minutes after injury animals were given a 5 μL intracerebroventricular injection with either vehicle (n=7) or 500 μM AQ2S (n=7). The 5 μL injection volume was delivered at a rate of 0.5 μL/minute. […] A second vehicle or AQ2S injection was administered 24 hours after injury. […] 3 days after injury animals were sacrificed, perfused with a fixative, brains sectioned, and stained with hematoxylin and eosin (H&E). Images were captured using a light microscope and camera.
Mice were given surgical/treatment protocols and hippocampal tissue analyzed 3 days later. […] (D) Left (injured) and right (non-injured) hippocampal volumes were quantified for each mouse; sham (n=5), vehicle CCI injury (n=7), and AQ2S CCI injury (n=7). FIG. 23D show left hippocampal volumes (expressed as % of uninjured right hippocampus).

mice = settings: intraperitoneal; cited from earlier work
rats = settings: intraperitoneal; cited from earlier work

Structure (SMILES): O=C1c2ccccc2C(=O)c2cc(S(=O)(=O)O)ccc21 [AQ2S, anthraquinone-2-sulfonic acid]
- caspase-9 activity (caspase-9): significantly reduced baseline and injury activity levels
- decrease in luminescent signal compared to DMSO controls ([1]; CellTiter Blue and viability-GLO reagents combined): 13-17%
- viability, fluorometric CellTiter Blue assay ([1]; compound alone 24 hours, all concentrations used): none of the AQ2S concentrations used inhibited viability below control levels
- ERK activation [2]: did not prevent STS-mediated ERK inhibition
- 4-HNE staining (4-HNE; 200 μM H2O2 4.5 hours, 125 μM): did not significantly up-regulate 4-HNE staining
- basal level of 4-HNE (4-HNE; uninjured, 125 AQ2S 48 hours): did not significantly increase the basal level of 4-HNE
- stretch injury induced LDH release (neuronal death) ([3]; 75 μM pre-treated 30 minutes): significantly reduced neuronal death
- MTT metabolism after stretch injury ([3]; 30 minutes before or 30 minutes after injury): increased by pre- or post-treatment with AQ2S
- left hippocampal volume (% of uninjured right hippocampus) ([4]; 5 μL 500 μM intracerebroventricular 15 minutes and 24 hours after CCI, 3 days): not significantly (N.S.) different from Sham animals
- estimated final tissue AQ2S concentration ([4]; 5 μL of 500 μM icv, extrapolated from total CSF volume in mice (35 μL), unit of the source corrected): ~71 µM
- Acute LD50 (mice): 630 mg/kg
- Acute LD50 (rats): 730 mg/kg
